Measured values taken from patent US9878994B2, “2-H-indazole derivatives as cyclin-dependent kinase (CDK) inhibitors and therapeutic uses thereof” (Beta Pharma, Inc., priority 2014, dated 2018).
Read-outs that look alike come from different tables or passages of the source.

Assays:
CDK4 = CDK4 (Homo sapiens, UniProt P11802); experiment: CDK4 biochemical assay (33P-ATP filter-binding kinase assay)
Experimental: (§1) Cyclin Dl was added to freshly prepared reaction buffer [20 mM Hepes (pH 7.5), 10 mM MgCl2, 1 mM EGTA, 0.02% Brij 35, 0.02 mg/mL BSA, 0.1 mM Na3VO4, 2 mM DTT, 1% DMSO]. CDK4 or CDK6 was delivered to the substrate solution and gently mixed. […] The compounds, diluted in DMSO, were added into the kinase reaction mixture by Acoustic technology (Echo550; nanoliter range) and incubated for 20 minutes at room temperature. 33P-ATP (1 μM) was added to the reaction mixture to initiate the reaction. The kinase reaction was incubated for 2 hours at room temperature. The reactions were spotted onto P81 ion exchange paper and the kinase activity detected by filter-binding method. Curves were fitted to a nonlinear regression curve using a four parameter logistic equation (GraphPad Prism).

CDK6 = CDK6 (Homo sapiens, UniProt Q00534); experiment: CDK6 biochemical assay (33P-ATP filter-binding kinase assay)
Experimental: as §1

MCF7 human tumor cells = experiment: MCF7 cell assay (Cell Titer-Glo, inhibition of cell growth); format: cell-based; settings: 72 hours of culture
Experimental: The MCF7 human tumor cells were seeded in a clear polystyrene 96-well microculture plate (Corning® Costar® 96-well flat bottom plate, Cat. #3997) in a total volume of 90 μL/well. After 24 hours of incubation in a humidified incubator at 37° C. with 5% CO2 and 95% air, 10 μL of 10×, serially diluted 1 in growth medium was added to each well in duplicate (10 point dose response). After 72 hours of culture in a humidified incubator at 37° C., in an atmosphere of 5% CO2 and 95% air, the plated cells and Cell Titer-Glo® (Promega G7571) reagents were brought to room temperature to equilibrate for 30 minutes. 100 μL of Cell Titer-Glo® reagent was added to each well. The plate was shaken for two minutes and then left to equilibrate for ten minutes. The medium/Cell Titer Glo® reagent was transferred to a white polystyrene 96-well microculture plate (Corning® Costar® 96-well flat bottom plate, Cat. #3917) before reading luminescence on the Tecan GENios microplate reader. Percent inhibition of cell growth was calculated relative to untreated control wells. All tests were performed in duplicate at each concentration level. The IC50 value for the test agents was estimated using Prism 6.05 by curve-fitting the data using the following four parameter-logistic equation: […]

CDK6, sequence (Q00534 whole entry): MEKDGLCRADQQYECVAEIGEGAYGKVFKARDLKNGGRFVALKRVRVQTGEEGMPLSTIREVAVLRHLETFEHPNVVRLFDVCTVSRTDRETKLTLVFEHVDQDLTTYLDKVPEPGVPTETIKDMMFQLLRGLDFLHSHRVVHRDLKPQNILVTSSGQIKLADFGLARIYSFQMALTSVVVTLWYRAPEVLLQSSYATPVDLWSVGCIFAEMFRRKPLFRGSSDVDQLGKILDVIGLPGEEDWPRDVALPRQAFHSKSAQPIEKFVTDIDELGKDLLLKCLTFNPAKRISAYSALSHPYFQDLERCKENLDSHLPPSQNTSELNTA
CDK6, sequence (P24385 whole entry partner): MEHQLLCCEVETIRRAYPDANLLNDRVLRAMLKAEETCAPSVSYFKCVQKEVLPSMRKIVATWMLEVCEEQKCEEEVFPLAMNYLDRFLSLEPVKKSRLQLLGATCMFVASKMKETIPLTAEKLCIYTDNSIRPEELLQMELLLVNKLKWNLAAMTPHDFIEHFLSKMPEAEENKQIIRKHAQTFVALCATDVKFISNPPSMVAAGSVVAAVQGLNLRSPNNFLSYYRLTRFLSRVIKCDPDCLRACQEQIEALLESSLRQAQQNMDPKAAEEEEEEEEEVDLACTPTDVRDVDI
CDK4, sequence (P11802 whole entry): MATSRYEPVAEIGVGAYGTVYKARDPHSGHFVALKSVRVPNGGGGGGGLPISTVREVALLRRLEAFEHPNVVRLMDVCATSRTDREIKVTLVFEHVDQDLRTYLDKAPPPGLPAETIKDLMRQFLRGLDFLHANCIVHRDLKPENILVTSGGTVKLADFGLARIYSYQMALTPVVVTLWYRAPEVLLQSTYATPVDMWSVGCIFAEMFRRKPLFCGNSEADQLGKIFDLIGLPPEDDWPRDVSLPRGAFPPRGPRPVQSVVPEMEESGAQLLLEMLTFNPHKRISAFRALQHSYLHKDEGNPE
CDK4, sequence (P24385 whole entry partner): as the sequence (P24385 whole entry partner) above

Compound | IC50 (CDK4; Cyclin D1, 1 μM 33P-ATP, 2 hours at room temperature, read-out: IC50 in CDK4 assay) [nM] | IC50 (CDK6; Cyclin D1, 1 μM 33P-ATP, 2 hours at room temperature, read-out: IC50 in CDK6 assay) [nM] | IC50 (MCF7 human tumor cells) [nM] | IC50 (CDK4; assay conditions described herein, read-out: IC50 CDK4 biochemical assay) [nM] | IC50 (CDK6; assay conditions described herein, read-out: IC50 CDK6 biochemical assay) [nM]
CCN1CCN(Cc2ccc(Nc3ncc(F)c(-c4ccc5nn(C)c(C(C)C)c5c4)n3)nc2)CC1 [Compound 1, N-(5-((4-ethylpiperazin-1-yl)methyl)pyridin-2-yl)-5-fluoro-4-(3-isopropyl-2-methyl-2H-indazol-5-yl)pyrimidin-2-amine] | < 1 | < 1 | < 2000 |  | 
CN(C)C(=O)c1cc2cnc(Nc3ccc(N4CCNCC4)cn3)nc2n1C1CCCC1 [Compound 32] |  |  | 10000 |  | 
CCN1CCN(Cc2ccc(Nc3ncc(F)c(-c4cc(F)c5nc(C)n(C(C)C)c5c4)n3)nc2)CC1 [Compound 33] |  |  | < 2000 |  | 
CC(=O)c1c(C)c2nc(Nc3ccc(N4CCNCC4)cn3)ncc2n(C2CCCC2)c1=O [Compound 34] |  |  | 10000 | < 1 | < 2
